The test addresses T1, CRTh2 receptor (Homo sapiens, UniProt Q9Y5Y4).
T1 construct: expressed in transfected cells; host or cells: CHO.K1 cells (membranes)
T1 sequence (Q9Y5Y4 1-395): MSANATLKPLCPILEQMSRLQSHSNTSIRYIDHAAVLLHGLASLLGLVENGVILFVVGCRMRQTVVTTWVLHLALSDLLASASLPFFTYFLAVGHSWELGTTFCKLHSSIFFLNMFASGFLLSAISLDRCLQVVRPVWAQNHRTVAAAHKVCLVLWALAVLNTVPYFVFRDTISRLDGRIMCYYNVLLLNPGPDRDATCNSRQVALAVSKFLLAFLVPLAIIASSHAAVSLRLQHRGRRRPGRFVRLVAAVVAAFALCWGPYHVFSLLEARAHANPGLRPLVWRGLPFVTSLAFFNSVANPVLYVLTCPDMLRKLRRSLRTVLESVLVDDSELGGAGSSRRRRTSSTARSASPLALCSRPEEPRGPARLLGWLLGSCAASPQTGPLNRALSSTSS
Nature of the test: CRTh2 GTPγS antagonism binding assay. The test is classed as biochemical. The following applies: membranes from CHO.K1 cells stably overexpressing the CRTh2 receptor; [35S]-GTPγS 0.1 nM; PGD2 at 50 nM (EC80); compound pre-incubated 1 h; read-out: GTPγ Binding. On the procedure:
CRTh2 GTPγS antagonism binding assay
The assay is performed using membranes obtained from CHO.K1 cells stably overexpressing the CRTh2 receptor and [^35S]-GTPγS as radioligand. Assay is performed pre-incubating 4-8 µg of membranes per well with the compound to be tested for 1 h, followed by incubation with PGD2 at 50 nM (EC80), 0.1 nM [^35S]-GTPγS in incubation buffer (20 mM HEPES, 10 mM MgCl2, 100 mM NaCl, 10 µM GDP, 10 µg/ml Saponine and 0.2% BSA) for 2 h at room temperature. The reaction is terminated by filtering in GF/C plates pre-treated with 20 mM HEPES, 10 mM MgCl2, 100 mM NaCl and washing 6 times with wash buffer (20 mM NaH2PO4, 20 mM Na2HPO4). After washing, plates are dried and scintillation buffer Optiphase added. The radioactivity retained in the filter is counted using a Microbeta liquid scintillation counter.
(GTPγS resists hydrolysis and so accumulates on activated G proteins.)
Turning to `Cc1nn(-c2cccc(NC(=O)[C@@H]3C[C@H]3c3ccccc3)c2)c(C)c1CC(=O)O` (relative stereo) [Example 1, {3,5-Dimethyl-1-[3-({[trans-2-phenylcyclopropyl]carbonyl}amino)phenyl]-1H-pyrazol-4-yl}acetic acid], the IC50 came out at 250 nM.

For the molecule `Cc1ccc(NC(=O)Nc2cccc(Cn3nc(C)c(CC(=O)O)c3C)c2)cc1` [Example 4, {3,5-Dimethyl-1-[3-({[(4-methylphenyl)amino]carbonyl}amino)benzyl]-1H-pyrazol-4-yl}acetic acid], the IC50 came to 370 nM.

Take `Cc1nn(Cc2ccccc2S(=O)(=O)c2ccccc2)c(C)c1CC(=O)O` [Example 13, {3,5-Dimethyl-1-[2-(phenylsulfonyl)benzyl]-1H-pyrazol-4-yl}acetic acid]: the IC50 is 86 nM.

On to `Cc1c(CC(=O)O)c(-c2ccccc2)nn1Cc1ccccc1S(=O)(=O)c1ccccc1` [Example 15, {5-Methyl-3-phenyl-1-[2-(phenylsulfonyl)benzyl]-1H-pyrazol-4-yl}acetic acid], for which the IC50 is 6.8 nM.

Turning to `Cc1c(CC(=O)O)c(-c2ccccc2)nn1Cc1ccccc1S(=O)(=O)N1CCOCC1` [Example 23, {5-Methyl-1-[2-(morpholin-4-ylsulfonyl)benzyl]-3-phenyl-1H-pyrazol-4-yl}acetic acid], the IC50 was found to be 74 nM.

Take `Cc1c(CC(=O)O)c(-c2ccccc2)nn1Cc1ccccc1Cc1ccccc1` [Example 24, [1-(2-Benzylbenzyl)-5-methyl-3-phenyl-1H-pyrazol-4-yl]acetic acid]: the IC50 turned out to be 105 nM.

As to `Cc1c(CC(=O)O)c(-c2ccc(Cl)cc2)nn1Cc1ccccc1S(=O)(=O)N1CCOCC1` [Example 25, {3-(4-Chlorophenyl)-5-methyl-1-[2-(morpholin-4-ylsulfonyl)benzyl]-1H-pyrazol-4-yl}acetic acid], the IC50 amounted to 94 nM.

On to `Cc1c(CC(=O)O)c(-c2ccc(Cl)cc2)nn1Cc1ccccc1S(=O)(=O)c1ccccc1` [Example 26, {3-(4-Chlorophenyl)-5-methyl-1-[2-(phenylsulfonyl)benzyl]-1H-pyrazol-4-yl}acetic acid], for which the IC50 turned out to be 24 nM.

Regarding `Cc1c(CC(=O)O)c(=O)[nH]n1Cc1ccccc1S(=O)(=O)c1ccccc1` [Example 29, {3-Hydroxy-5-methyl-1-[2-(phenylsulfonyl)benzyl]-1H-pyrazol-4-yl}acetic acid], the IC50 stood at 160 nM.

`Cc1c(CC(=O)O)c(-c2ccccc2)nn1Cc1ccccc1S(=O)(=O)N1CCCCC1` [Example 30, {5-Methyl-3-phenyl-1-[2-(piperidin-1-ylsulfonyl)benzyl]-1H-pyrazol-4-yl}acetic acid]: the IC50 amounted to 66 nM.

Values taken from patent EP2457900A1, “New pyrazole derivatives having CRTh2 antagonistic behaviour” (Almirall, S.A., priority 2010, dated 2012).
